Data taken from patent US20110190365A1, “Insecticidal 4-phenyl-1H-pyrazoles” (Bayer Crop Science AG, priority 2008, published 2011).

System: larvae of the mustard beetle (Phaedon cochleariae)
Experiment: Phaedon cochleariae test (PHAECO spray treatment)
Format: in vivo
Settings: Phaedon cochleariae, foliar, 168 h; application rate 500 g/ha, Chinese cabbage leaf discs sprayed, after 7 days; read-out: effect in % (beetle larvae killed)
Protocol: Phaedon cochleariae Test (PHAECO Spray Treatment)
Solvent: 78.0 parts by weight of acetone • • 1.5 parts by weight of dimethylformamide Emulsifier: 0.5 part by weight of alkylaryl polyglycol ether
To produce a suitable preparation of active compound, 1 part by weight of active compound is mixed with the stated amounts of solvent and emulsifier, and the concentrate is diluted with emulsifier-containing water to the desired concentration.
Discs of Chinese cabbage (Brassica pekinensis) are sprayed with an active compound preparation of the desired concentration and, after drying, populated with larvae of the mustard beetle (Phaedon cochleariae).
After 7 days, the effect in % is determined. 100% means that all beetle larvae have been killed; 0% means that none of the beetle larvae have been killed.

SMILES	pest or weed control at 500 g/ha [%]
N#Cc1cc(-n2nc(C(F)(F)F)c(-c3cc(Cl)cc(C(F)(F)F)c3)c2N)ccc1F [I-A-Q4-009, 5-[5-Amino-4-(3-chloro-5-trifluoromethylphenyl)-3-trifluoromethylpyrazol-1-yl]-2-fluorobenzonitrile]	> 80
Nc1c(-c2cc(Cl)cc(Cl)c2)c(C(F)(F)F)nn1-c1ncc(C(=O)NCc2ccccn2)c(C(F)(F)F)n1 [I-A-Q2-020, N-(Pyridin-2-ylmethyl)-2-[5-amino-4-(3,5-dichlorophenyl)-3-trifluoromethylpyrazol-1-yl]-4-trifluoromethylpyrimidine-5-carboxamide]	> 80
CSc1c(-c2cc(Cl)cc(Cl)c2)c(C(F)(F)F)nn1-c1ccc(C(=O)NC(C)C(F)(F)F)c(C)c1 (stereo not shown) [I-A-Q2-027, 4-[4-(3,5-Dichlorophenyl)-5-methylsulphanyl-3-trifluoromethylpyrazol-1-yl]-2-methyl-N-(2,2,2-trifluoro-1-methylethyl)benzamide]	> 80
N#Cc1cc(-n2nc(C(F)(F)F)c(-c3cc(Cl)cc(C(F)(F)F)c3)c2N)ccc1-n1cncn1 [I-A-Q1-001, 5-[5-Amino-4-(3-chloro-5-trifluoromethylphenyl)-3-trifluoromethylpyrazol-1-yl]-2-[1,2,4]triazol-1-ylbenzonitrile]	> 80

Same assay, conditions: application rate 500 g/ha, Chinese cabbage leaf discs sprayed, after 7 days

SMILES	effect in % (beetle larvae killed) [%]
Cc1cc(-n2nc(C(F)(F)F)c(-c3ccccc3Br)c2N)ccc1C(=O)NCc1ncccn1 [I-A-Q2-419]	100
Cc1cc(-n2nc(C(F)(F)F)c(-c3ccccc3Br)c2N)ccc1C(=O)NCc1ccccn1 [I-A-Q2-421]	100
Cc1cc(-n2nc(C(F)(F)F)c(-c3ccccc3Cl)c2N)ccc1C(=O)NC(C)c1ccccn1 (stereo not shown) [I-A-Q2-415]	100

System: not listed separately
Experiment: log P by HPLC on a reversed-phase column (C18), EEC Directive 79/831 Annex V.A8
Format: physicochemical
Settings: HCOOH
Protocol: The stated log P values were determined in accordance with EEC Directive 79/831 Annex V.A8 by HPLC (High Performance Liquid Chromatography) using a reversed-phase column (C18).

SMILES	log P (HCOOH)
Cc1cc(-n2nc(C(F)(F)F)c(-c3ccccc3Br)c2N)ccc1C(=O)NCc1ncccn1 [I-A-Q2-419]	I-A-Q2-419: log P (HCOOH): 2.68
Cc1cc(-n2nc(C(F)(F)F)c(-c3ccccc3Br)c2N)ccc1C(=O)NCc1ccccn1 [I-A-Q2-421]	I-A-Q2-421: log P (HCOOH): 2.53
Cc1cc(-n2nc(C(F)(F)F)c(-c3ccccc3Cl)c2N)ccc1C(=O)NC(C)c1ccccn1 (stereo not shown) [I-A-Q2-415]	I-A-Q2-415: log P (HCOOH): 2.71
Cc1cc(-n2nc(C(F)(F)OC(F)(F)C(F)(F)OC(F)(F)F)c(-c3cc(Cl)cc(C(F)(F)F)c3)c2N)ccc1C(=O)NCC(F)(F)C(F)F [I-A-Q2-287]	I-A-Q2-287: log P (HCOOH): 5.33
Nc1c(-c2cc(F)cc(Cl)c2)c(C(F)(F)F)nn1-c1ccc(C(=O)NC2CC2)cc1 [I-A-Q2-092]	I-A-Q2-092: log P (HCOOH): 3.27
CCc1nn(-c2ccc(C(=O)NCC(F)(F)C(F)F)c(C)c2)c(N)c1-c1ccc(Cl)cc1 [I-A-Q2-339]	I-A-Q2-339: log P (HCOOH): 3.27
CC(NC(=O)c1ccc(-n2nc(C(F)(F)F)c(-c3cc(F)cc(Cl)c3)c2N)cc1)c1ccccc1 (stereo not shown) [I-A-Q2-090]	I-A-Q2-090: log P (HCOOH): 4.11
CCCc1nn(-c2ccc(C(=O)NCc3ccccn3)c(C)c2)c(N)c1-c1ccc(Cl)cc1 [I-A-Q2-380]	I-A-Q2-380: log P (HCOOH): 2.53
Cc1cc(-n2nc(C(F)(F)F)c(-c3cc(Cl)cc(Cl)c3)c2N)ccc1C(=O)NCC(F)(F)C(F)F [I-A-Q2-035]	I-A-Q2-035: log P (HCOOH): 4.23
Nc1c(-c2cc(Cl)cc(Cl)c2)c(C(F)(F)F)nn1-c1ccc(C(=O)NCC(F)(F)F)cc1 [I-A-Q2-138]	I-A-Q2-138: log P (HCOOH): 4.21
Nc1c(-c2ccc(Cl)c(F)c2)c(C(F)(F)F)nn1-c1ccc(C(=O)NCc2ccccn2)cc1 [I-A-Q2-171]	I-A-Q2-171: log P (HCOOH): 2.53
CCCc1nn(-c2ccc(C(=O)NCC(F)(F)C(F)F)c(C)c2)c(N)c1-c1ccc(Cl)cc1 [I-A-Q2-340]	I-A-Q2-340: log P (HCOOH): 3.56
Cc1nccc(CNC(=O)c2ccc(-n3nc(C(F)(F)F)c(-c4cc(Cl)cc(Cl)c4)c3N)cc2C)n1 [I-A-Q2-258]	I-A-Q2-258: log P (HCOOH): 3.47
Nc1c(-c2cccc(Cl)c2)c(C(F)(F)F)nn1-c1ccc(C(=O)NCC(F)(F)F)cc1 [I-A-Q2-085]	I-A-Q2-085: log P (HCOOH): 3.47
Cc1cc(-n2nc(C(F)(F)F)c(-c3cccc(Br)c3)c2N)ccc1C(=O)NCC(F)(F)C(F)F [I-A-Q2-314]	I-A-Q2-314: log P (HCOOH): 3.65
CCC(C)NC(=O)c1ccc(-n2nc(C(F)(F)F)c(-c3cc(Cl)cc(Cl)c3)c2N)cc1 (stereo not shown) [I-A-Q2-145]	I-A-Q2-145: log P (HCOOH): 4.34

SMILES	log P (HCOOH)
Cc1cc(-n2nc(C(F)(F)F)c(-c3cc(Cl)cc(Cl)c3)c2N)ccc1C(=O)NC(=C(Cl)C#N)C(F)(F)F [I-A-Q2-047]	I-A-Q2-047: log P (HCOOH): 4.94
Nc1c(-c2ccc(Cl)cc2)c(C(F)(F)F)nn1-c1ccc(C(=O)NCC(F)(F)F)cc1 [I-A-Q2-162]	I-A-Q2-162: log P (HCOOH): 3.51
Cc1cc(-n2nc(C)c(-c3ccccc3Cl)c2N)ccc1C(=O)NCC(F)(F)C(F)F [I-A-Q2-333]	I-A-Q2-333: log P (HCOOH): 2.59
Nc1c(-c2cc(Cl)cc(Cl)c2)c(C(F)(F)F)nn1-c1ccc(C(=O)NCc2cccnc2)cc1 [I-A-Q2-143]	I-A-Q2-143: log P (HCOOH): 2.59
CNC(=O)c1ccc(-n2nc(C(F)(F)F)c(-c3cc(Cl)cc(Cl)c3)c2Br)nc1 [I-A-Q2-109]	I-A-Q2-109: log P (HCOOH): 4.35
Nc1c(-c2cc(Cl)cc(Cl)c2)c(C(F)(F)F)nn1-c1ccc(C(=O)NC2CC2)cc1 [I-A-Q2-136]	I-A-Q2-136: log P (HCOOH): 3.80
CSc1c(-c2cc(Cl)cc(C(F)(F)F)c2)c(C(F)(F)F)nn1-c1ccc(C(=O)NC(C)C(F)(F)F)cc1 (stereo not shown) [I-A-Q2-068]	I-A-Q2-068: log P (HCOOH): 5.35
Cc1cc(-n2nc(C(F)(F)F)c(-c3cc(Cl)cc(Cl)c3)c2N)ccc1C(=O)NC(CC(F)(F)F)C(F)(F)F (stereo not shown) [I-A-Q2-217]	I-A-Q2-217: log P (HCOOH): 4.70
Cc1cccc(CNC(=O)c2ccc(-n3nc(C(F)(F)F)c(-c4cc(Cl)cc(Cl)c4)c3N)cc2C)n1 [I-A-Q2-042]	I-A-Q2-042: log P (HCOOH): 2.93
Nc1c(-c2cc(Cl)cc(Cl)c2)c(C(F)(F)F)nn1-c1ccc(C(=O)NCC(F)F)cc1 [I-A-Q2-140]	I-A-Q2-140: log P (HCOOH): 3.93
COC(C)c1nn(-c2ccc(C(=O)NCC(F)(F)C(F)F)c(C)c2)c(N)c1-c1cc(Cl)cc(C(F)(F)F)c1 (stereo not shown) [I-A-Q2-291]	I-A-Q2-291: log P (HCOOH): 3.84
Nc1c(-c2cc(Cl)cc(Cl)c2)c(C(F)(F)F)nn1-c1ccc(C(=O)NC2CCC2)cc1 [I-A-Q2-141]	I-A-Q2-141: log P (HCOOH): 4.21
Nc1c(-c2ccc(Cl)c(F)c2)c(C(F)(F)F)nn1-c1ccc(C(=O)NC2CC2)cc1 [I-A-Q2-167]	I-A-Q2-167: log P (HCOOH): 3.19
CCC(NC(=O)c1ccc(-n2nc(C(F)(F)F)c(-c3cc(Cl)cc(Cl)c3)c2N)cc1C)C(F)(F)F (stereo not shown) [I-A-Q2-200]	I-A-Q2-200: log P (HCOOH): 4.82
Cc1cc(-n2nc(C)c(-c3ccc(F)cc3Cl)c2N)ccc1C(=O)NCC(F)(F)C(F)F [I-A-Q2-327]	I-A-Q2-327: log P (HCOOH): 2.73

Same assay, conditions: HCOOH; Table 4, compounds of formula I-A-Q4

SMILES	log P (HCOOH)
Nc1c(-c2ccc(Br)cc2)c(C(F)(F)F)nn1-c1ccc(C(=O)O)cc1 [I-A-Q4-098]	I-A-Q4-098: log P (HCOOH): 3.35
Nc1c(-c2ccc(Cl)cc2)c(C(F)F)nn1-c1ccc(Cl)cn1 [I-A-Q4-057]	I-A-Q4-057: log P (HCOOH): 4.45
Cc1nn(-c2ccc(Cl)cn2)c(N)c1-c1ccc(F)cc1 [I-A-Q4-038]	I-A-Q4-038: log P (HCOOH): 3.84
Nc1c(-c2ccccc2Cl)c(C(F)(F)F)nn1-c1ccc(Cl)cn1 [I-A-Q4-023]	I-A-Q4-023: log P (HCOOH): 4.57
Cc1nn(-c2ccc(Cl)cn2)c(N)c1-c1c(F)cccc1Cl [I-A-Q4-031]	I-A-Q4-031: log P (HCOOH): 3.78
CN(C)C=Nc1c(-c2ccc(Cl)cc2)c(C(F)(F)F)nn1-c1ncc(Cl)cn1 [I-A-Q4-015]	I-A-Q4-015: log P (HCOOH): 3.47
Cc1ccccc1-c1c(C(F)(F)F)nn(-c2ccc(Cl)cn2)c1N [I-A-Q4-054]	I-A-Q4-054: log P (HCOOH): 4.64
Cc1ccccc1-c1c(C(F)(F)F)nn(-c2ccc(C(=O)O)cc2)c1N [I-A-Q4-101]	I-A-Q4-101: log P (HCOOH): 2.94

Same assay, conditions: HCOOH; Table 6, compounds of formula I-B-Q2

SMILES	log P (HCOOH)
O=C(NCC(F)(F)C(F)F)c1ccc(-n2cc(-c3cc(Cl)cc(Cl)c3)c(C(F)(F)F)n2)c2ccccc12 [I-B-Q2-021]	I-B-Q2-021: log P (HCOOH): 4.58

Same assay, conditions: HPLC, reversed-phase C18, mobile phase with formic acid

SMILES	log P (HCOOH)
N#Cc1cc(-n2nc(C(F)(F)F)c(-c3ccc(Br)cc3)c2N)ccc1-n1cncn1 [I-A-Q1-040]	I-A-Q1-040: log P (HCOOH): 3.44
Cc1nn(-c2ccc(-n3cncn3)c(C#N)c2)c(N)c1-c1c(F)cccc1F [I-A-Q1-054]	I-A-Q1-054: log P (HCOOH): 2.18
Cc1nn(-c2ccc(-n3cncn3)c(C#N)c2)c(N)c1-c1ccc(Cl)c(Cl)c1 [I-A-Q1-025]	I-A-Q1-025: log P (HCOOH): 3.02
N#Cc1cc(-n2nc(C(F)(F)F)c(-c3cc(Cl)cc(Cl)c3)c2N)ccc1-n1nc[nH]c1=O [I-A-Q1-026]	I-A-Q1-026: log P (HCOOH): 3.37
Nc1c(-c2cc(Cl)cc(Cl)c2)c(C(F)(F)F)nn1-c1ccc(CNC(=O)C2CC2)c(Cl)c1 [I-A-Q3-022]	I-A-Q3-022: log P (HCOOH): 4.12
N#Cc1cc(-n2nc(C(F)(F)F)c(-c3cc(F)c(F)c(F)c3)c2N)ccc1-n1cncn1 [I-A-Q1-041]	I-A-Q1-041: log P (HCOOH): 3.19

Same assay, conditions: HPLC, reversed-phase C18, mobile phase with formic acid; read-out: log P (HCOOH)

SMILES	chromatographic logP
N#Cc1cc(-n2nc(C(F)(F)F)c(-c3cc(Cl)cc(C(F)(F)F)c3)c2N)ccc1F [I-A-Q4-009, 5-[5-Amino-4-(3-chloro-5-trifluoromethylphenyl)-3-trifluoromethylpyrazol-1-yl]-2-fluorobenzonitrile]	4.54
Nc1c(-c2cc(Cl)cc(Cl)c2)c(C(F)(F)F)nn1-c1ncc(C(=O)NCc2ccccn2)c(C(F)(F)F)n1 [I-A-Q2-020, N-(Pyridin-2-ylmethyl)-2-[5-amino-4-(3,5-dichlorophenyl)-3-trifluoromethylpyrazol-1-yl]-4-trifluoromethylpyrimidine-5-carboxamide]	3.54
CSc1c(-c2cc(Cl)cc(Cl)c2)c(C(F)(F)F)nn1-c1ccc(C(=O)NC(C)C(F)(F)F)c(C)c1 (stereo not shown) [I-A-Q2-027, 4-[4-(3,5-Dichlorophenyl)-5-methylsulphanyl-3-trifluoromethylpyrazol-1-yl]-2-methyl-N-(2,2,2-trifluoro-1-methylethyl)benzamide]	5.48
N#Cc1cc(-n2nc(C(F)(F)F)c(-c3cc(Cl)cc(C(F)(F)F)c3)c2N)ccc1-n1cncn1 [I-A-Q1-001, 5-[5-Amino-4-(3-chloro-5-trifluoromethylphenyl)-3-trifluoromethylpyrazol-1-yl]-2-[1,2,4]triazol-1-ylbenzonitrile]	3.92
N#Cc1cc(N)ccc1-n1cncn1 [5-Amino-2-[1,2,4]triazol-1-ylbenzonitrile]	1.01
